Test: Gramicidin D conductance change in lipid bilayer across silicon nitride aperture
Format: biochemical
Details: 5 to 20 μl of 2 mg/ml gD in ethanol to each bath; within minutes; capacitance remained constant; ethanol alone no effect
Description: Lipid bilayers were formed by the method of Montal and Mueller (1972). In practicing the Langmuir-Blodgett technique, one raises two lipid monolayers across an aperture, allowing the lipids to align their hydrophobic tail portions across the aperture so as to form a lipid bilayer. Because of the hydrophobic nature of the lipid tails, in order to form stable bilayers the surface of a BSP must also be hydrophobic. If the substrate is hydrophobic, the lipids can smoothly transition from coating the substrate to spanning the aperture. To reverse the wetting properties of the naturally hydrophilic silicon nitride, the silicon nitride was coated with an alkylsilane (octyltrichlorosilane). Application of this coating was quite simple and very effective. It was not found to be possible to form a bilayer with untreated devices. Use of longer carbon chain silanes or alternative materials to make the surface even more hydrophobic would further increase bilayer stability.
For smaller apertures, it was more difficult to observe the capacitance change over the background. In this case, membrane-bound proteins that affect the electrical properties of the bilayer, such as carriers and ion channels, offered the best proof of the formation of a bilayer. The ion channel peptide Gramicidin D (gD), was chosen for ease of use and large conductance change. […]

## Gramicidin D [gD]
  conductance of the bilayer: dramatically increased
